Assay type in all cases: biochemical
The target of assay [1] is T1, AsDMS (Aquimarina spongiae drimenol synthase) (Aquimarina spongiae, UniProt A0A1M6CXF0).
T1 construct: gene SAMN04488508_102320
Nature of the assay: GC-MS detection of drimenol. The conditions noted are these: 50 mM Tris-HCl pH 8.0, 2 mM MgCl2, 1 mM DTT, 100 μM FPP, 200 nM enzyme, 30 °C, 1 h, with or without alkaline phosphatase.

Assay [2] addresses T2, AsDMS (Aquimarina spongiae drimenol synthase) (Aquimarina spongiae, UniProt A0A1M6CXF0, D182N/K183D, form not given).
T2 construct: gene SAMN04488508_102320
Nature of the assay: GC-MS detection of drimenol. The note with it: 50 mM Tris-HCl pH 8.0, 2 mM MgCl2, 1 mM DTT, 100 μM FPP, 200 nM enzyme, 30 °C, 1 h, with or without alkaline phosphatase.

In assay [3] the target is T1, AsDMS (Aquimarina spongiae drimenol synthase). The experiment in a line: GC-MS quantification of drimenol, Michaelis-Menten fit. The conditions noted are these: 50 mM Tris-HCl pH 8.0, 2 mM MgCl2, 1 mM DTT, 0-120 μM FPP, 200 nM enzyme, 30 °C.
For assay [4] the target is unchanged. Nature of the assay: GC-MS detection of drimenol. The conditions noted are these: 50 mM Tris-HCl pH 8.0, 2 mM MgCl2, 1 mM DTT, 100 μM FPP, 200 nM enzyme, 30 °C, 1 h, with or without alkaline phosphatase. This is another data set of the same source.
The target in a further assay is T3, FeDMS (Flavivirga eckloniae, UniProt A0A2K9PVZ9).
T3 construct: gene C1H87_21965
The experiment in a line: GC-MS detection of drimenol. The note with it: 50 mM Tris-HCl pH 8.0, 2 mM MgCl2, 1 mM DTT, 100 μM FPP, 500 nM enzyme, 30 °C, 1 h, with or without alkaline phosphatase.

T1 sequence (A0A1M6CXF0 entry or part of it): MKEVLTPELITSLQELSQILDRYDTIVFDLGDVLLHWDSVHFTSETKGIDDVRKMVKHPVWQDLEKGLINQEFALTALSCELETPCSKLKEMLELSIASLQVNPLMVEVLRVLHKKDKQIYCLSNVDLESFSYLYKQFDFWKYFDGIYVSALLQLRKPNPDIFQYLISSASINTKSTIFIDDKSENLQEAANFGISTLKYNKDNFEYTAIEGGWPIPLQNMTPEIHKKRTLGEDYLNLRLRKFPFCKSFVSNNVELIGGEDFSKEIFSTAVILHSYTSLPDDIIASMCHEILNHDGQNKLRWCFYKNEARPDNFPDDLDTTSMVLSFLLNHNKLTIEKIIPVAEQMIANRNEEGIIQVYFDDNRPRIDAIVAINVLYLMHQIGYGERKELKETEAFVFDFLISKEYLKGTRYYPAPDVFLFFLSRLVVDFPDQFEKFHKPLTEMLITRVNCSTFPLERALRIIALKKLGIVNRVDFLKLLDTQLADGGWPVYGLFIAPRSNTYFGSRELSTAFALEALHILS
T2 sequence (A0A1M6CXF0 entry or part of it D182N/K183D, form open): as the sequence (A0A1M6CXF0 entry or part of it) above, with D182N, K183D counted along it
T3 sequence (A0A2K9PVZ9 entry or part of it): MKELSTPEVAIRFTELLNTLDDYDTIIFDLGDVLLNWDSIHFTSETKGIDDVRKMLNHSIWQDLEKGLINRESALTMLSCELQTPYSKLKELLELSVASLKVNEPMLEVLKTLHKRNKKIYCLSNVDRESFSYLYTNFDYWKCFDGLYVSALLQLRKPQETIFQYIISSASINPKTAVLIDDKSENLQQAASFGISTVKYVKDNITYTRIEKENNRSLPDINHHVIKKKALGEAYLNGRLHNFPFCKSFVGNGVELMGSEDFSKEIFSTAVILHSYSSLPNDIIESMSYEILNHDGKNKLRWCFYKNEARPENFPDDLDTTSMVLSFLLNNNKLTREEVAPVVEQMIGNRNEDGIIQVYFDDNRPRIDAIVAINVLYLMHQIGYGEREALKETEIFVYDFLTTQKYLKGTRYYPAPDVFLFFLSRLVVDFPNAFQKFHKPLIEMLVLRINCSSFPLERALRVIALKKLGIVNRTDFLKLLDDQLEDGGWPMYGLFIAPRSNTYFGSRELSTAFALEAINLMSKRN

A word on the Km: it is the concentration of substrate that gives half-maximal velocity. For `CC(C)=CCC/C(C)=C/CC/C(C)=C/CO[P@@](=O)(O)OP(=O)(O)O` [FPP], the “GC-MS detection of drimenol” value was “The D196N mutant displayed a significant decrease in activity” in assay [1]; “a double mutant D196N/K197D” in assay [2]; “exhibited almost equipotent activity to that of the WT” in assay [4]; “five proteins (AsDMS, A474DMS, A119DMS, FeDMS, and RbDMS) with FPP yielded a single compound” on FeDMS. In assay [3], the Km amounted to 9.59 ± 2.15 µM.
